Results on one molecule are retold here after patent US20250360124A1, “NOVEL RAS INHIBITORS” (KHR BIOTEC GMBH, priority 2022, published 2025).

Holding throughout (format): cell-based
Assay [1] concerns the target T1, NRAS G12V (Homo sapiens, UniProt P01111, G12V).
T1 construct: K, N and HRAS G12V (full length) was cloned with Xho I and Bgl II to LgBit; expressed in transfected cells
Description: NanoBit assay for RAS activation (LgBiT-RAS / SmBiT-CRAF RBD). To be noted: N-RAS G12V with CRAF RBD; 2 h with inhibitor, serum free DMEM; FIG. 1. Here is the method: (§1) FIG. 1a) and 1b): NanoBit assay for RAS activation (KRAS G12V, NRAS G12V, HRAS G12V)
(§2) N-terminal LgBiT and C-terminal SmBIT construct was purchased from Promega and K, N and HRAS G12V (full length) was cloned with Xho I and Bgl II to LgBit and CRAF Ras binding domain (1-149) was cloned with EcoRI and Bgl II to SmBit. For transfections, 1 μg or 2 μg of (12 well/6 well) plasmids were transfected into cells with 0.5 mM of PEI reagent in 100 μl or 200 μl PBS. One day after transfection, cells were harvested and seeded into 96 well white plates, half area (Greiner). After an additional day the medium was changed to serum free DMEM and the cells were incubated for 2 h with inhibitors. NanoGlo assay was performed according to the manufacturer's instructions. The luminescence was measured using Tecan infinite (Tecan). DMSO-treated cells were set as 1. The results shown are mean mean±SEM from at least 3 independent experiments.

The target of assay [2] is T2, KRAS G12V (Homo sapiens, UniProt P01116, G12V).
T2 construct: K, N and HRAS G12V (full length) was cloned with Xho I and Bgl II to LgBit; expressed in transfected cells
T2 sequence (P01116 1-188 isoform P01116-2 G12V): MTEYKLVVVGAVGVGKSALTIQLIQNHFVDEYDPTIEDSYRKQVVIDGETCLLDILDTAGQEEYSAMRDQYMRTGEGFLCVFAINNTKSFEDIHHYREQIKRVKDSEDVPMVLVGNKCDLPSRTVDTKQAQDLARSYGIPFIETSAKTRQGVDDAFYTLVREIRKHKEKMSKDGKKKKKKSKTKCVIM
The assay is described as above. To be noted: K-RAS G12V with CRAF RBD; 2 h with inhibitor, serum free DMEM; FIG. 1. The procedure: as §1, §2

Assay [3] has as its target T3, HRAS G12V (Homo sapiens, UniProt P01112, G12V).
T3 construct: K, N and HRAS G12V (full length) was cloned with Xho I and Bgl II to LgBit; expressed in transfected cells
The assay is described as above. As to conditions: H-RAS G12V with CRAF RBD; 2 h with inhibitor, serum free DMEM; FIG. 1. Here is the method:
as §1, §2

Assay [4] deals with sNF96.2 cells. Description: MTT assay for cell viability in 96 well plate, RASOpathie model. To be noted: 48 h treatment. (Tetrazolium dyes change colour on reduction, which living cells bring about.)
Assay [5] deals with NCI-H358 cells. Nature of the assay: Soft agar colony formation assay, MTT readout. To be noted: Homo sapiens, growth in soft agar, colonies stained with MTT, absorbance 570 nm. Here is the method:
(§3) FIGS. 2a) and 2b): MTT assay for cell growth
(§4) Metabolic activity was quantified using Cell Proliferation Kit I (Roche, Basel, Switzerland). Cells were seeded in 96-well cell culture plates, using 5000 cells per well for NCI-H358 cells. After treatment, 10 μl of MTT solution was added and incubated for 2 h in CO2 incubator. Then 100 μl of solubilization buffer was added to each well and incubated overnight in CO2 incubator. Cell viability, assessed by the amount of metabolized MTT, was quantified by measuring absorbance at 570 nm.
(§5) MTT assay for the growth of different tumor cell lines with RAS mutations in soft agar with Quinacrine dihydrochloride.
(§6) NCI-H358, H358, H2122, ASPC-1, HCT-116, T24 and HT1080 cells were used for the soft agar colony formation assay. After the treatment with Quinacrine dihydrochloride hydrate, the colonies were stained with MTT and the value was quantified by measuring absorbance at 570 nm after solubilization. The results represent mean±SEM from 3 independent experiments.

In assay [6] the test system is T24 cells. Description: Soft agar colony formation assay, MTT readout. As to conditions: Homo sapiens, T-24, growth in soft agar, colonies stained with MTT, absorbance 570 nm. The procedure:
as §3, §4, §5, §6

For assay [7], the system named is NCI-H2122 cells. Nature of the assay: Soft agar colony formation assay, MTT readout. As to conditions: Homo sapiens, growth in soft agar, colonies stained with MTT, absorbance 570 nm. The procedure: as §3, §4, §5, §6
Assay [8] deals with HCT-116 cells. Description: Soft agar colony formation assay, MTT readout. To be noted: Homo sapiens, growth in soft agar, colonies stained with MTT, absorbance 570 nm. Here is the method: as §3, §4, §5, §6
For assay [9], the system named is HT1080 cells. Description: Soft agar colony formation assay, MTT readout. To be noted: Homo sapiens, HT-1080, growth in soft agar, colonies stained with MTT, absorbance 570 nm. Here is the method: as §3, §4, §5, §6
The test system of assay [10] is ASPC1 cells. Description: Soft agar colony formation assay, MTT readout. As to conditions: Homo sapiens, growth in soft agar, colonies stained with MTT, absorbance 570 nm. Here is the method:
as §3, §4, §5, §6

The subject of assay [11] is KRAS dependent cells. Nature of the assay: MTT assay for cell viability in 96 well cell culture plate. As to conditions: 48 h treatment, KRAS dependent cells incl. G12C/Y96D mutation, FIG. 3a. Here is the method: FIGS. 3a) and 3b): MTT assay for cell viability in 96 well cell culture plate Cells were treated with Quinacrine dihydrochloride hydrate for 48 h and cell viability was evaluated by MTT assay. DMSO-treated cells were set as 1. The results shown are mean±SEM from 3 independent experiments.
G12C/Y96D mutation is normally seen in patients, who develop resistance to G12C inhibitor. Thus, patients, who are resistant to G12C inhibitors can still be treated with Quinacrine dihydrochloride.

Where a name gives a salt, the structure may show the parent alone.

T3 sequence (P01112 whole entry G12V): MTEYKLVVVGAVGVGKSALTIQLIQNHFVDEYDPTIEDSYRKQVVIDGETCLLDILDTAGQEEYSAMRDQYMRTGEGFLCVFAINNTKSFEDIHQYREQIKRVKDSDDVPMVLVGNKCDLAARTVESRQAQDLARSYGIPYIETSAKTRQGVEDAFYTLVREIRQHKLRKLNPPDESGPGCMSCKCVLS
T1 sequence (P01111 whole entry G12V): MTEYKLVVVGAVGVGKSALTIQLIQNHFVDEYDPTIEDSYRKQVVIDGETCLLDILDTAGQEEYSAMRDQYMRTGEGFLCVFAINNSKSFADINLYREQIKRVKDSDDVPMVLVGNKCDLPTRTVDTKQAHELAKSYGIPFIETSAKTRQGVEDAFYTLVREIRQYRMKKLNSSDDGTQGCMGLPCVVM

On to `CCN(CC)CCCC(C)Nc1c2ccc(Cl)cc2nc2ccc(OC)cc12` (centres unmarked) [Quinacrine dihydrochloride hydrate, 4-N-(6-chloro-2-methoxyacridin-9-yl)-1-N,1-N-diethylpentane-1,4-diamine;hydrate;dihydrochloride], for which the “inhibition of RAS activation (NanoBit luminescence)” value in [1], in [2] and in [3] was “inhibits” in each case. The half-inhibitory concentration (IC50) (commonly the midpoint of a concentration-inhibition curve) came to 4.51 µM in [4]; 5.1 µM in assay [5]; 4 µM in assay [6]; 2.48 µM in [7]; 5.5 µM in assay [8]; 149 µM in [9]. In addition, the half-inhibitory concentration (IC50) in assay [10] is 4.28 µM. Moreover, in [11], the “inhibition of cell viability” value was “inhibits KRAS dependent cells irrespective of the presence of mutation”.
